Measurements published in the supplement of paper PMC11451515.

Assays:
[1] = tested on: NOMO1; assay: AUC of viability dose-response curve (% viability x log10 dose units); higher = less sensitive; details: 48 h
Summary of the method: (§1)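 Leukemia cells adapted to each medium were seeded at 500 or 1000 cells/well in 1536-well plates and dosed with library compounds in DMSO at 11 threefold doses from 47 μM to 0.79 nM for 48 h at 37°C. CellTiter-Glo One luminescence was normalised per plate to DMSO and cell-free wells, then fitted with a four-parameter log-logistic model over log10 doses. Area under the curve was taken from this fit by the trapezoidal rule, with curves above full viability scaled and curves failing quality control removed.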

[2] = tested on: P12-Ichikawa; assay: as above; details: 48 h
Summary of the method: as §1

[3] = tested on: SEM cells; assay: as above; details: 48 h
Summary of the method: as §1

[4] = tested on: SEM cells; assay: cell viability relative to DMSO control; higher = less cytotoxic; details: 48 h
Summary of the method: (§2)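 Library compounds in DMSO were pin-dosed in an 11-point threefold series (47 μM to 0.79 nM) onto leukemia cells in 1536-well plates (5 μl). Plates held 500 cells/well of NOMO1 or SEM or 1000 cells/well of P12-Ichikawa, each adapted for at least four passages in each medium. Luminescence was read with CellTiter-Glo One after 48 h at 37°C. Viability means the per-plate percentage relative to DMSO wells, using cell-free wells as background.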

[5] = tested on: NOMO1; assay: as above; details: HPLM + 10% dialyzed FBS, 48 h
Summary of the method: as §2

[6] = tested on: P12-Ichikawa; assay: as above; details: HPLM + 10% dialyzed FBS, 48 h
Summary of the method: as §2

COc1cc(F)c(C(C)C)cc1-c1ccc(C(F)(F)F)cc1CN1C(=O)O[C@H](c2cc(C(F)(F)F)cc(C(F)(F)F)c2)[C@@H]1C
AUC of viability dose-response curve
Details	[1]	[2]	[3]
HPLM + 10% dialyzed FBS	375	438	457
RPMI 5 mM glucose + 10% FBS	438	451	445
RPMI 5 mM glucose + 10% dialyzed FBS	444	459	441

N/C1=N/C(=O)C/2=C(NC[C@@H](CNC3=CC=C(C=C3)C(=O)N[C@@H](CCC([O-])=O)C([O-])=O)N2C=O)\N1
[4], HPLM + 10% dialyzed FBS
Details	cell viability [%]
0.000781 µM	103
0.00234 µM	114
0.00702 µM	120
0.0211 µM	115
0.0632 µM	131
0.19 µM	114
0.569 µM	117
1.71 µM	116
5.12 µM	119
15.4 µM	123
46.1 µM	136

AUC of viability dose-response curve
Details	HPLM + 10% dialyzed FBS	RPMI 5 mM glucose + 10% FBS	RPMI 5 mM glucose + 10% dialyzed FBS
[1]	319	307	321
[3]	446	465	437

CC(C)(C(=O)NCC(F)(F)C(F)(F)F)C(=O)N[C@@H]1C(=O)Nc2ccccc2-c2ccccc21
cell viability [%], [4]
Details	HPLM + 10% dialyzed FBS	RPMI 5 mM glucose + 10% FBS
0.000781 µM	99.6	96.8
0.00234 µM	113	127
0.00702 µM	120	120
0.0211 µM	128	133
0.0632 µM	127	122
0.19 µM	119	128
0.569 µM	119	130
1.71 µM	123	108
5.12 µM	126	124
15.4 µM	129	72.7
46.1 µM	3.02	3.52

AUC of viability dose-response curve
Details	HPLM + 10% dialyzed FBS	RPMI 5 mM glucose + 10% FBS	RPMI 5 mM glucose + 10% dialyzed FBS
[1]	366	337	363
[3]	452	435	452

NC(=O)c1ccc2[nH]ccc2c1
AUC of viability dose-response curve
Details	[1]	[2]	[3]
HPLM + 10% dialyzed FBS	440	440	444
RPMI 5 mM glucose + 10% FBS	464	442	312
RPMI 5 mM glucose + 10% dialyzed FBS	460	430	438

CO[C@@H]1COCC[C@@H]1N[C@@H]1CC[C@@](C(=O)N2CCc3ncc(C(F)(F)F)cc3C2)(C(C)C)C1
Details	AUC of viability dose-response curve, [1]	AUC of viability dose-response curve, [3]	cell viability, [5] [%]	cell viability, [6] [%]
0.000781 µM	–	–	107	98
0.00234 µM	–	–	133	109
0.00702 µM	–	–	121	123
0.0211 µM	–	–	142	119
0.0632 µM	–	–	157	113
0.19 µM	–	–	141	119
0.569 µM	–	–	132	118
1.71 µM	–	–	127	126
5.12 µM	–	–	143	127
15.4 µM	–	–	151	123
46.1 µM	–	–	96.6	47.4
HPLM + 10% dialyzed FBS	472	466	–	–
RPMI 5 mM glucose + 10% FBS	466	458	–	–
RPMI 5 mM glucose + 10% dialyzed FBS	472	467	–	–

[4], HPLM + 10% dialyzed FBS
Details	cell viability [%]
0.000781 µM	97.1
0.00234 µM	107
0.00702 µM	110
0.0211 µM	112
0.0632 µM	111
0.19 µM	113
0.569 µM	114
1.71 µM	102
5.12 µM	119
15.4 µM	103
46.1 µM	68.1

O=[S+]([O-])(CC1CS1)c1ccc(Oc2ccccc2)cc1 (stereo unspecified)
AUC of viability dose-response curve
Details	[1]	[2]	[3]
HPLM + 10% dialyzed FBS	448	462	451
RPMI 5 mM glucose + 10% FBS	461	445	437
RPMI 5 mM glucose + 10% dialyzed FBS	435	447	450
